Here are results for two substances from patent publication US20020071842A1, “Soluble CD1 compositions and uses thereof” (priority 2000, published 2002).

Holding throughout (experiment): Plate-bound mCD1d fusion protein hybridoma stimulation assay (IL-2 ELISA)
Holding throughout (assay type): cell-based, mouse
In general terms: In an ELISA, binding on a coated surface is turned into a signal by an enzyme label.

The test system of one experiment is VIII24 hybridoma. The note with it: VIII24 diverse TCR hybridoma; plate-bound mCD1d-IgGFc2a fusion protein preincubated with lipid antigen. The source says:
(§1) The CD1d-restricted T cell clones 24.7, 24.8, 24.9 (NKT cell) and 14S.6, 14S.7, 14S.10, and 14S.15 (diverse TCRs) were all derived from spleen of wild type C57BL/6 mice, as described previously (Behar, S. M. et al., J. Immunol., 162:161-7 (1999)). To generate T cell hybridomas, the activated T cells were fused to the aminopterin-sensitive BW5147 αβTCR^− thymoma cell line using PEG1500, and hybrids were selected in HAT medium (Life Technologies, Gaithersburg, Md.). Resulting TT hybridomas were tested for recognition of RMA-S cells transfected with mCD1D1 compared to untransfected RMA-S cells, as described below. […] The hybridomas are distinguished from the original T cell clones by the addition of a letter to their names. The KT/7, KT/12, KT/22, and KT/23 and Vβ/9 NKT cell hybridomas were derived from NK1.1^+ T cells enriched from spleen of C57BL/6 mice by depletion of CD8+ T cells, naive T cells, and B cells by mAbs (anti-B220, CD8, and CD62L, or anti-CD8α, CD8β, and Me114) bound to magnetic microbeads, or to plastic. The purified cells were stimulated either by the anti-CD3 KT3 mAb (KT/7, KT/12, KT/22, KT/23), or by an anti-Vβ8.2 mAb (Vβ/9), and addition of IL-2 or IL-2 and IL-7. After 4-5 days of culture the cells were fused with BW5147 thymoma cells. The VII68, VIII24, XVI9, and XV104 diverse TCR hybridomas were generated from CD4^+ T cells from class 110 mice, as described previously (Cardell, S. et al., J. Exp. Med., 182:993-1004 (1995)). The DN32D3 hybridoma was derived as described (Lantz, O., and Bendelac, A., J. Exp. Med., 180:1097-106 (1994).
(§2) To test for recognition of the mCD1d fusion protein and purified or synthetic antigens, 96 well protein A coated plates (Pierce Chemical Company) were incubated with 400-600 ng/well of the fusion protein or a negative control IgG2a antibody, RPC5.4 or UPC10, in PBS, at pH 7.2. Lipid antigens were diluted into PBS and added where specified at the indicated molar ratio of antigen to fusion protein, (when not specified the ratio was 40:1). Protein A plates containing the fusion protein and antigen were incubated 24-48 hr at 37° C., then washed three times with 200 μl/well sterile PBS, pH 7.2, and two times with 200 μl/well sterile culture medium (containing RPMI supplemented with L-glutamine and penicillin/streptomycin, Life Technologies, Gaithersburg, Md., and 10% bovine calf serum, Hyclone Laboratories, Logan, Utah). For assays in which the PI was phospholipase treated, it was first diluted into 0.01M Tris, 0.15M NaCl, pH 7.5, containing 0.25 U PI-specific phospholipase C or 0.5 U phospholipase D (Sigma, St Louis, Mo.), and incubated 30 minutes at room temperature, then added to the protein A plates as described above. For assays in which the pH was varied during antigen incubation with the fusion protein, the fusion protein and α-GalCer were diluted into a 20 mM citrate/phosphate buffer of the specified pH, which contained 0.15 M NaCl, and after incubation, the samples were neutralized by addition of 1M Tris, pH 7.5. Hybridoma cells were added to fusion protein/antigen treated plates at a concentration of 1×10^5 cells/well, in a total volume of 150 μl/well. Assays were performed using 2-6 replicate wells. In some assays, an anti-mCD1d blocking antibody (19G11) was included at a final concentration of 20 μg/ml. The plates were incubated at 37° C. for 16-20 hr, and culture supernatants were withdrawn for analysis. Each experiment was performed at least three times.
(§3) IL-2 secreted in the hybridoma stimulation assays was quantitated in a double antibody sandwich ELISA, by comparison to a standard curve of purified murine IL-2 (Pharmingen, San Diego, Calif.). Hybridoma plate stimulation supernatants (used either neat or diluted) and serially diluted IL-2 standards were added to 96 well ELISA plates coated with a rat anti-mouse IL-2 capture antibody (Pharmingen). […]

The next experiment concerns VII68 hybridoma. As to conditions: VII68 diverse TCR hybridoma; plate-bound mCD1d-IgGFc2a fusion protein preincubated with lipid antigen.
Text: as §1, §2, §3

In another experiment the test system is 24.9.E hybridoma. The note with it: 24.9 E NKT hybridoma; plate-bound mCD1d-IgGFc2a fusion protein preincubated with lipid antigen.
Text: as §1, §2, §3

The subject of a further experiment is Vβ/9 hybridoma. As to conditions: Vβ/9 NKT hybridoma; plate-bound mCD1d-IgGFc2a fusion protein preincubated with lipid antigen.
Text: as §1, §2, §3

Another experiment relates to KT/23 hybridoma. The note with it: KT/23 NKT hybridoma; plate-bound mCD1d-IgGFc2a fusion protein preincubated with lipid antigen.
Text: as §1, §2, §3

In another experiment the test system is XV104 hybridoma. As to conditions: XV104 diverse TCR hybridoma; plate-bound mCD1d-IgGFc2a fusion protein preincubated with lipid antigen.
Text: as §1, §2, §3

The next experiment has as its system DN32D3 hybridoma. As to conditions: DN32D3 NKT hybridoma; plate-bound mCD1d-IgGFc2a fusion protein preincubated with lipid antigen.
Text: as §1, §2, §3

The subject of the next experiment is 24.7.C hybridoma. As to conditions: 24 7.C NKT hybridoma; plate-bound mCD1d-IgGFc2a fusion protein preincubated with lipid antigen.
Text: as §1, §2, §3

The test system of the next experiment is KT/22 hybridoma. As to conditions: KT/22 NKT hybridoma; plate-bound mCD1d-IgGFc2a fusion protein preincubated with lipid antigen.
Text: as §1, §2, §3

Another experiment has as its system XV19 hybridoma. The note with it: XV19 diverse TCR hybridoma; plate-bound mCD1d-IgGFc2a fusion protein preincubated with lipid antigen.
Text: as §1, §2, §3

In a further experiment the test system is 14S.15.A hybridoma. The note with it: 14S.15.A diverse TCR hybridoma; plate-bound mCD1d-IgGFc2a fusion protein preincubated with lipid antigen.
Text: as §1, §2, §3

Another experiment deals with KT/12 hybridoma. As to conditions: KT/12 NKT hybridoma; plate-bound mCD1d-IgGFc2a fusion protein preincubated with lipid antigen.
Text: as §1, §2, §3

The test system of another experiment is 14S.7.N hybridoma. The note with it: 14S.7.N diverse TCR hybridoma; plate-bound mCD1d-IgGFc2a fusion protein preincubated with lipid antigen.
Text: as §1, §2, §3

Another experiment concerns KT/7 hybridoma. As to conditions: KT/7 NKT hybridoma; plate-bound mCD1d-IgGFc2a fusion protein preincubated with lipid antigen.
Text: as §1, §2, §3

A further experiment concerns 14S.6.A hybridoma. As to conditions: 14S.6.A diverse TCR hybridoma; plate-bound mCD1d-IgGFc2a fusion protein preincubated with lipid antigen.
Text: as §1, §2, §3

The test system of the next experiment is 24.8.A hybridoma.
Text: as §1, §2
IL-2 secreted in the hybridoma stimulation assays was quantitated in a double antibody sandwich ELISA, by comparison to a standard curve of purified murine IL-2 (Pharmingen, San Diego, Calif.). Hybridoma plate stimulation supernatants (used either neat or diluted) and serially diluted IL-2 standards were added to 96 well ELISA plates coated with a rat anti-mouse IL-2 capture antibody (Pharmingen).

Turning to monogalactosyl diglyceride [MGDG], the IL-2 secretion in the experiment on VIII24 hybridoma, with VII68 hybridoma, in the experiment with 24.9.E hybridoma, in the experiment on Vβ/9 hybridoma, in the experiment on KT/23 hybridoma and with XV104 hybridoma was 0 (A “0” indicates a mean of less than 50 pg/ml IL-2 was secreted) in each case. Also, the IL-2 secretion in the experiment with DN32D3 hybridoma, in the experiment on 24.7.C hybridoma, in the experiment with KT/22 hybridoma, with XV19 hybridoma, with 14S.15.A hybridoma and with KT/12 hybridoma was 0 (A “0” indicates a mean of less than 50 pg/ml IL-2 was secreted) in each case. Moreover, the IL-2 secretion in the experiment with 14S.7.N hybridoma is 0 (A “0” indicates a mean of less than 50 pg/ml IL-2 was secreted); in the experiment with KT/7 hybridoma, 0 (A “0” indicates a mean of less than 50 pg/ml IL-2 was secreted); in the experiment with 14S.6.A hybridoma it was 0 (A “0” indicates a mean of less than 50 pg/ml IL-2 was secreted); in the experiment with 24.8.A hybridoma (24.8 A NKT hybridoma, plate-bound mCD1d-IgGFc2a fusion protein preincubated with lipid antigen), “+ (“+” indicates 50-250 pg/ml)”.

For diacyl glyceride [DAG], the IL-2 secretion in the experiment on VIII24 hybridoma, in the experiment with VII68 hybridoma, in the experiment on 24.9.E hybridoma, with Vβ/9 hybridoma, in the experiment with KT/23 hybridoma and in the experiment with XV104 hybridoma was 0 (A “0” indicates a mean of less than 50 pg/ml IL-2 was secreted) throughout. Besides, the IL-2 secretion in the experiment on DN32D3 hybridoma, with 24.7.C hybridoma, with KT/22 hybridoma, in the experiment with XV19 hybridoma, with 14S.15.A hybridoma and in the experiment on KT/12 hybridoma was 0 (A “0” indicates a mean of less than 50 pg/ml IL-2 was secreted) in each case. Further, the IL-2 secretion in the experiment on 14S.7.N hybridoma, with KT/7 hybridoma and in the experiment with 14S.6.A hybridoma was 0 (A “0” indicates a mean of less than 50 pg/ml IL-2 was secreted) each time. Further, in the experiment on 24.8.A hybridoma (24.8.A hybridoma, compared to untreated or buffer treated fusion protein), the “IL-2 response to mCD1d fusion protein pre-treated with purified or synthetic lipid” value is “little or no stimulation”.
